In paper PMC4964015 (Annals of Clinical Microbiology and Antimicrobials, 2016):
Peptide text beside a SMILES is read from it.

Assays:
Listeria monocytogenes = assay: Minimal bactericid concentration (MBC); format: cell-based
Escherichia coli cells = settings: cited from earlier work
From the text: (§1) Extremely rich sources of AMPs are the plants where up to several hundreds of peptide-coding genes can be expressed in specific organs constitutively or induced locally or systematically by the attack of pathogenic microbes. […] In Medicago truncatula nodule cells infected with Sinorhizobium meliloti, hundreds ...

[1] = tested on: gram-negative and gram-positive bacteria; settings: cited from earlier work
From the text: as §1

fungi = settings: cited from earlier work
From the text: as §1

[2] = tested on: rhizobia (Sinorhizobium meliloti); assay: Killing assay in phosphate buffer (number of living cells); format: cell-based; settings: 50 µg/ml peptide in phosphate buffer for three hours
Protocol: (§2) In this study, we investigated how NCR247 and NCR335 affect the cell surface as well as the outer and inner membranes (OM and IM respectively) of the α-Proteobacterium S. meliloti, the natural target of the peptides. We compared the effect of these NCR peptides to that of Polymyxin B (PMB), which alters bacterial outer membrane permeability and then disrupts the cytoplasmic membrane of gram-negative bacteria. […] NCR247 and NCR335 inhibited the growth of rhizobia at 25 and 12 µg/ml (Minimal Inhibitory Concentration), respectively, in broth microdilution assays, and were able to decrease the number of living cells by two and four orders of magnitude, respectively, when they were used at 50 µg/ml concentration in phosphate buffer for three hours. In other—including clinically relevant—bacteria, the minimal bactericid concentration of the peptides varied between 20 and 125 µg/ml (Additional file 1). […] Prolonging the treatment for 3 h caused no further changes, cells treated for 1 and 3 h were alike. These observations were in line with reported surface corrugation of the E. coli cell envelope by NCR247 [18]. Similar study on the NCR335 treated S. meliloti cultures could not be performed as the bacteria lost their attachment to the poly-L-lysine coated muscovite mica surface.

Pseudomonas aeruginosa = assay: Minimal bactericid concentration (MBC); format: cell-based
Escherichia coli K12 = assay: Minimal bactericid concentration (MBC); format: cell-based
Lactobacillus plantarum = assay: Minimal bactericid concentration (MBC); format: cell-based
[3] = tested on: Sinorhizobium meliloti AK631; assay: Minimal bactericid concentration (MBC); format: cell-based
[4] = tested on: rhizobia (Sinorhizobium meliloti); assay: Broth microdilution assay (Minimal Inhibitory Concentration); format: cell-based; settings: growth inhibition of rhizobia
Protocol: as §2

Staphylococcus aureus = assay: Minimal bactericid concentration (MBC); format: cell-based
[5] = tested on: S. meliloti outer membrane; assay: Outer membrane permeability, NPN fluorescence; format: cell-based, Sinorhizobium meliloti; settings: for outer membrane permeabilization (NPN fluorescence): peptides tested at 50, 25, 12.5 and 6.25 µg/ml, 5 mM HEPES pH 7.2, 50 µg/ml = NCR335 6.4 µM, NCR247 16.6 µM, NCR001 9.5 µM, PMB 36 µM
Protocol: The cells from exponentially growing cultures were collected, washed and suspended in 5 mM HEPES buffer (pH=7.2). 80 µl NPN of 25 µM concentration and 100 µl of bacterial suspension (OD600=0.1) were pipetted into the wells of a black 96-well microtiter plate and the fluorescence were measured for 3 cycles (9 seconds/cycle) in a FLUOstar OPTIMA plate-reader (BMG Labtech). After the three cycles, 20 µl of peptide was added and the fluorescence were measured for an additional 18 cycles.

S. meliloti cells [6] = assay: Membrane potential, DiOC2(3) red/green fluorescence (BacLight kit); format: cell-based, Sinorhizobium meliloti; settings: BacLight Bacterial Membrane Potential Kit
From the text: For the measurements, the BacLight™ Bacterial Membrane Potential Kit (Thermo Fisher Scientific) was used according to the instructions of the manufacturer.

Salmonella typhimurium = assay: Minimal bactericid concentration (MBC); format: cell-based
S. meliloti cells [7] = assay: Atomic force microscopy of immobilized cells; format: cell-based, Sinorhizobium meliloti
From the text: Details of the measurements and sample preparations are described in Reference 18.
Nagy K, Mikulass KR, Vegh AG, Kereszt A, Kondorosi E, Varo G, Szegletes Z: Interaction of cysteine-rich cationic antimicrobial peptides with intact bacteria and model membranes. Gen Physiol Biophys 2015, 34(2):135-144

Molecule	MBC (Listeria monocytogenes) [µg/mL]	surface roughness of treated Escherichia coli cells (AFM) (Escherichia coli cells)	antimicrobial activity against gram-negative and gram-positive bacteria [1]	antimicrobial activity against fungi (fungi)	decrease of the number of living cells [2]	MBC (Pseudomonas aeruginosa) [µg/mL]	MBC (Escherichia coli K12) [µg/mL]	MBC (Lactobacillus plantarum) [µg/mL]	MBC [3] [µg/mL]	Minimal Inhibitory Concentration [4] [µg/mL]	MBC (Staphylococcus aureus) [µg/mL]	outer membrane permeabilization (NPN fluorescence) [5]	effect on membrane potential (DiOC2(3) red/green fluorescence ratio) (S. meliloti cells [6])	MBC (Salmonella typhimurium) [µg/mL]	outer membrane damage (NPN fluorescence) ([5]; 25 µg/ml, compared with 50 µg/ml)	outer membrane damage (NPN fluorescence) ([5]; 50 µg/ml)	outer membrane damage (NPN fluorescence) ([5]; concentrations lower than 25 µg/ml)	average height of bacteria (AFM) (S. meliloti cells [7]; 25 µg/ml, average height ~600 nm)	cell surface roughness / surface alterations (AFM) (S. meliloti cells [7]; treatment for 1 h, 3 h caused no further changes)
H-RLNTTFRPLNFKMLRFWGQNRNIMKHRGQKVHFSLILSDCKTNKDCPKLRRANVRCRKSYCVPI [NCR335, cationic nodule-specific cysteine-rich peptide of Medicago truncatula, chemically synthetized, pI 11.22]	20	increased surface roughness	effective	effective	four	70	50	30	50	12	30	equally efficient at 50, 25 and 12.5 µg/ml but provoked a weaker OM permeabilization than PMB	loss of membrane potential	50	–	–	–	–	–
CC[C@H](C)[C@H](NC(=O)[C@H](CS)NC(=O)CNC(=O)[C@H](CC(N)=O)NC(=O)[C@@H](N)CCCNC(=N)N)C(=O)N[C@H](C(=O)N[C@@H](CC(=O)O)C(=O)N1CCC[C@H]1C(=O)N[C@@H](CCCNC(=N)N)C(=O)N[C@@H](CS)C(=O)N1CCC[C@H]1C(=O)N[C@@H](Cc1ccc(O)cc1)C(=O)N[C@@H](CCC(N)=O)C(=O)N[C@@H](CCC(N)=O)C(=O)N[C@@H](CS)C(=O)N[C@@H](CCCNC(=N)N)C(=O)N[C@@H](CCCNC(=N)N)C(=O)N1CCC[C@H]1C(=O)N[C@@H](CC(C)C)C(=O)N[C@@H](Cc1ccc(O)cc1)C(=O)N[C@@H](CS)C(=O)N[C@@H](CCCNC(=N)N)C(=O)N[C@@H](CCCNC(=N)N)C(=O)N[C@@H](CCCNC(=N)N)C(=O)O)C(C)C [NCR247] (H-RNGCIVDPRCPYQQCRRPLYCRRR-OH; C-terminus assumed)	–	increased surface roughness	effective	effective	two	–	–	–	–	–	–	–	loss of membrane potential	–	even weaker	only a mild damage	no effect	no change in the average height	increased the surface roughness
Polymyxin B [PMB, reference compound]	–	–	–	–	–	–	–	–	–	–	–	most pronounced effect	loss of membrane potential	–	–	–	–	–	–
N#CC(C#N)=NNc1cccc(Cl)c1 [CCCP, carbonyl cyanide m-chlorophenyl hydrazone, reference compound]	–	–	–	–	–	–	–	–	–	–	–	–	loss of membrane potential	–	–	–	–	–	–
